Data: patent publication US20220387432A1 (priority 2019, published 2022)

What was measured:
[1] = tested on: PrP^Sc-induced synaptotoxicity on hippocampal neurons; details: cited from earlier work
[2] = tested on: amyloid β-derived diffusible ligand (ADDL) induced synaptotoxicity; details: cited from earlier work
[3] = tested on: PrP^Sc-induced synaptotoxicity on hippocampal neurons; assay: cells; type: cell-based, mice
[4] = molecular target: CKIδ (Homo sapiens, UniProt P48730); details: Verkaar et al. (2011); cited from earlier work
[5] = molecular target: CKIε (Homo sapiens, UniProt P49674); details: Verkaar et al. (2011); cited from earlier work
[6] = tested on: PrP^Sc-induced synaptotoxicity on hippocampal neurons; type: cell-based, mice

CKIε, sequence (P49674 whole entry, species assumed): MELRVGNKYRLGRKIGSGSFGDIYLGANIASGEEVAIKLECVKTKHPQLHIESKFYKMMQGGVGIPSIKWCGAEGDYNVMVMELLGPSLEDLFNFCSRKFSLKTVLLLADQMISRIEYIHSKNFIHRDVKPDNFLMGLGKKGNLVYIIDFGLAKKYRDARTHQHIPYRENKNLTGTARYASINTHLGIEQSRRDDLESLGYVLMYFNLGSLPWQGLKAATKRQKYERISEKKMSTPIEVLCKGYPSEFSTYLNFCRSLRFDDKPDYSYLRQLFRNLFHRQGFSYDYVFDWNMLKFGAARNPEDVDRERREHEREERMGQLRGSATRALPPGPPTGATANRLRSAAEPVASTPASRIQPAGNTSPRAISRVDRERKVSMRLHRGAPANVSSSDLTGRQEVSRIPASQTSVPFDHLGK
CKIδ, sequence (P48730 whole entry, species assumed): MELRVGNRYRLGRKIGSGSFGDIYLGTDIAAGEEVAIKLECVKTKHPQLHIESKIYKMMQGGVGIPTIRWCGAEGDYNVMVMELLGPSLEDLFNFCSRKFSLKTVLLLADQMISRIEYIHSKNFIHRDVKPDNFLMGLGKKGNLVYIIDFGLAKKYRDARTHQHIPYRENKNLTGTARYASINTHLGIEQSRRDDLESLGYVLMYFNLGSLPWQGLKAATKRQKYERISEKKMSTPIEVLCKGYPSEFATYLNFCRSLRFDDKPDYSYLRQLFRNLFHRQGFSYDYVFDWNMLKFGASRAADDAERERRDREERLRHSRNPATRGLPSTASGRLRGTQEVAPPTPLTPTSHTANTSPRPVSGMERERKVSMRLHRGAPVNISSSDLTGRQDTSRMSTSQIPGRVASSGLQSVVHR

SMILES	Effect on PrP^Sc-induced retraction of dendritic spines / synaptotoxicity [1]	Effect on Aβ oligomer induced dendritic spine retraction / loss [2]	Effect on spine retraction caused by PrP^Sc [3]	Reversal of dendritic spine retraction accrued during first 24 hrs of PrP^Sc treatment [3]	Effect against ADDL induced synaptotoxicity [2]	Inhibition of casein kinase isoform CKIδ [4]	Inhibition of casein kinase isoform CKIε [5]	Dose dependence of effect on PrP^Sc-induced spine loss [3]	Effect on PrP^Sc effects on dendritic spine number [3]	EC50 ([3]; Mus musculus, Hippocampal neuron, 24 h, read-out: EC50 of dose response curve for the rescuing effect on spine number)	Effect on PrP^Sc effects on mEPSC properties (frequency and amplitude) [6]
Cc1cccc(C#Cc2ccccc2)n1 [MPEP]	had no influence	blocked	–	–	–	–	–	–	–	–	–
COc1nccc(-c2c(-c3ccc(F)cc3)ncn2C2CCC(O)CC2)n1 (centres unmarked) [SB239063]	blocked	no significant effect	prevented spine retraction	able to reverse the dendritic spine retraction	ineffective	reported to inhibit	reported to inhibit	–	–	–	–
O=c1ncn2nc(Sc3ccc(F)cc3F)ccc2c1-c1c(Cl)cccc1Cl [neflamapimod]	–	–	–	–	showed positive effects	–	–	dose dependent	blocked	28.9 nM	blocked
